Several values for one entry are separate records, joined by “and”; a condition that tells them apart may be missing. Equal entries are not always repeated. Inconclusive results and toxic doses are left out. Square brackets hold non-standard residues; d marks the D form. Peptide text beside a SMILES is read from it. * marks the point of attachment. Nle = CCCC[CH](N)C(=O)O; Cbz = O=C(OCc1ccccc1)*
System: BDF1 mice, B16 melanoma ip, median survival T/C
Experiment: NCI In Vivo Anticancer Drug Screen. Data for tumor model B16 Melanoma (intraperitoneal) in B6D2F1 (BDF1) mice
Conditions: endpoint: median survival time, higher = longer survival
Summary of the method: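 Survival or tumor size is measured after treatment of tumor-bearing mice and normalised to the vehicle-treated control group.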

[1] = dose: 50.0 mg/kg/injection, schedule: Q01DX009 (ip), vehicle: saline with Tween-80
[2] = dose: 100.0 mg/kg/injection, schedule: Q01DX009 (ip), vehicle: saline with Tween-80
[3] = dose: 200.0 mg/kg/injection, schedule: Q01DX009 (ip), vehicle: saline with Tween-80
[4] = dose: 100.0 mg/kg/injection, schedule: Q04DX003 (ip), vehicle: saline with Tween-80
[5] = dose: 200.0 mg/kg/injection, schedule: Q04DX003 (ip), vehicle: saline with Tween-80
[6] = dose: 12.5 mg/kg/injection, schedule: Q01DX009 (ip), vehicle: saline
[7] = dose: 25.0 mg/kg/injection, schedule: Q01DX009 (ip), vehicle: saline
[8] = dose: 50.0 mg/kg/injection, schedule: Q01DX009 (ip), vehicle: saline
[9] = dose: 3.12 mg/kg/injection, schedule: Q01DX009 (ip), vehicle: saline
[10] = dose: 6.25 mg/kg/injection, schedule: Q01DX009 (ip), vehicle: saline
[11] = dose: 100.0 mg/kg/injection, schedule: Q04DX003 (ip), vehicle: Klucel (hydroxypropylcellulose) (HPC)
[12] = dose: 200.0 mg/kg/injection, schedule: Q04DX003 (ip), vehicle: Klucel (hydroxypropylcellulose) (HPC)
[13] = dose: 400.0 mg/kg/injection, schedule: Q04DX003 (ip), vehicle: Klucel (hydroxypropylcellulose) (HPC)
[14] = dose: 100.0 mg/kg/injection, schedule: Q01DX009 (ip), vehicle: Klucel (hydroxypropylcellulose) (HPC)
[15] = dose: 10.0 mg/kg/injection, schedule: Q01DX009 (ip), vehicle: saline with Tween-80
[16] = dose: 20.0 mg/kg/injection, schedule: Q01DX009 (ip), vehicle: saline with Tween-80
[17] = dose: 12.5 mg/kg/injection, schedule: Q01DX009 (ip), vehicle: Klucel (hydroxypropylcellulose) (HPC)
[18] = dose: 25.0 mg/kg/injection, schedule: Q01DX009 (ip), vehicle: Klucel (hydroxypropylcellulose) (HPC)
[19] = dose: 50.0 mg/kg/injection, schedule: Q01DX009 (ip), vehicle: Klucel (hydroxypropylcellulose) (HPC)

COc1cc2c(cc1O)N=C[C@@H]1CCC(O)N1C2=O (mixture of isomers)
T/C (dose: 0.5 mg/kg/injection, schedule: Q01DX009 (ip), vehicle: saline): 99 % of control | T/C (dose: 1.0 mg/kg/injection, schedule: Q01DX009 (ip), vehicle: saline): 99 % of control | T/C (dose: 2.0 mg/kg/injection, schedule: Q01DX009 (ip), vehicle: saline): 98 % of control | T/C (dose: 4.0 mg/kg/injection, schedule: Q01DX009 (ip), vehicle: saline): 101 % of control and 119 % of control

C(=NC1CCCCC1)c1c[nH]c2ccccc12
T/C [1]: 100 % of control | T/C [2]: 97 % of control | T/C [3]: 97 % of control

C[C@]12CC[C@H](OC(=O)Cc3ccc(N(CCCl)CCCl)cc3)CC1=CC[C@@H]1[C@@H]2CC[C@]2(C)C(=O)CC[C@@H]12
T/C [2]: 92 % of control | T/C [4]: 115 % of control | T/C [3]: 97 % of control | T/C [5]: 105 % of control | T/C (dose: 400.0 mg/kg/injection, schedule: Q04DX003 (ip), vehicle: saline with Tween-80): 105 % of control

CCCCC(NC(=O)C(Cc1ccccc1)NC(=O)OCc1ccccc1)C(=O)O (stereo not drawn) (Cbz-Phe-[Nle]-OH; configuration not given here)
T/C [1]: 92 % of control | T/C [2]: 100 % of control

CCCNCCCN
T/C [6]: 102 % of control | T/C [7]: 105 % of control | T/C [8]: 89 % of control

ClCC[Se](Cl)(Cl)c1ccccc1
T/C (dose: 0.78 mg/kg/injection, schedule: Q01DX009 (ip), vehicle: saline): 96 % of control | T/C (dose: 1.56 mg/kg/injection, schedule: Q01DX009 (ip), vehicle: saline): 105 % of control | T/C [9]: 113 % of control

CCN(CC)CC#CCCCCN(CC)CC
T/C (dose: 3.13 mg/kg/injection, schedule: Q01DX009 (ip), vehicle: saline): 95 % of control | T/C [10]: 97 % of control | T/C [6]: 90 % of control | T/C [8]: 89 % of control

OCc1cc2ccccc2[nH]1
T/C [11]: 112 % of control | T/C [12]: 110 % of control | T/C [13]: 106 % of control

Cc1cc(C)c(C(Cl)(Cl)Cl)c(C)c1Cl
T/C (dose: 1.56 mg/kg/injection, schedule: Q01DX009 (ip), vehicle: saline with Tween-80): 93 % of control | T/C (dose: 3.13 mg/kg/injection, schedule: Q01DX009 (ip), vehicle: saline with Tween-80): 90 % of control | T/C (dose: 6.25 mg/kg/injection, schedule: Q01DX009 (ip), vehicle: saline with Tween-80): 99 % of control | T/C (dose: 12.5 mg/kg/injection, schedule: Q01DX009 (ip), vehicle: saline with Tween-80): 103 % of control

O=C(O)C(CSC(c1ccccc1)c1ccccc1)NC(=O)C(c1ccccc1)c1ccccc1 (centres undefined)
T/C [11]: 102 % of control | T/C [12]: 105 % of control | T/C [13]: 92 % of control

CCCC(C(=O)O)c1ccccc1C (centres undefined)
T/C [2]: 102 % of control | T/C [3]: 99 % of control | T/C (dose: 300.0 mg/kg/injection, schedule: Q01DX009 (ip), vehicle: saline with Tween-80): 106 % of control

Clc1ccc2c(c1)-c1ccccc1C1=NCCN12
T/C (dose: 5.0 mg/kg/injection, schedule: Q01DX009 (ip), vehicle: saline): 108 % of control | T/C (dose: 10.0 mg/kg/injection, schedule: Q01DX009 (ip), vehicle: saline): 118 % of control

CC(C)OCCS(=O)(=O)Oc1ncc(Cl)cc1Cl
T/C [4]: 100 % of control | T/C [5]: 93 % of control

CN(C)CCC#N
T/C [8]: 113 % of control and 122 % of control | T/C (dose: 100.0 mg/kg/injection, schedule: Q01DX009 (ip), vehicle: saline): 110 % of control and 113 % of control | T/C (dose: 200.0 mg/kg/injection, schedule: Q01DX009 (ip), vehicle: saline): 105 % of control and 122 % of control

COc1cc2ccc(Cc3nccc4cc(OC)c(OC)cc34)cc2cc1OC
T/C [14]: 93 % of control | T/C (dose: 200.0 mg/kg/injection, schedule: Q01DX009 (ip), vehicle: Klucel (hydroxypropylcellulose) (HPC)): 93 % of control

COc1cc(/C=C(/C)[N+](=O)[O-])ccc1O
T/C (dose: 50.0 mg/kg/injection, schedule: Q01DX009 (ip), vehicle: carboxymethylcellulose (CMC)): 121 % of control | T/C (dose: 100.0 mg/kg/injection, schedule: Q01DX009 (ip), vehicle: carboxymethylcellulose (CMC)): 102 % of control

C=C(C)C(=O)OC1CCC2(C)C(CCC3C2CCC2(C)C(c4ccc(=O)oc4)CC4OC432)C1 (centres undefined)
T/C (dose: 1.25 mg/kg/injection, schedule: Q01DX009 (ip), vehicle: saline with Tween-80): 100 % of control | T/C (dose: 2.5 mg/kg/injection, schedule: Q01DX009 (ip), vehicle: saline with Tween-80): 94 % of control | T/C (dose: 5.0 mg/kg/injection, schedule: Q01DX009 (ip), vehicle: saline with Tween-80): 96 % of control | T/C [15]: 107 % of control | T/C [16]: 102 % of control

C=C1C(=O)O[C@H]2/C=C(/C)C3=CC(=O)[C@@](C)(C[C@@H](OC(=O)/C(C)=C\C)C12)O3 (some centres undefined)
T/C (dose: 0.75 mg/kg/injection, schedule: Q01DX009 (ip), vehicle: Klucel (hydroxypropylcellulose) (HPC)): 98 % of control | T/C (dose: 1.5 mg/kg/injection, schedule: Q01DX009 (ip), vehicle: Klucel (hydroxypropylcellulose) (HPC)): 93 % of control | T/C (dose: 3.0 mg/kg/injection, schedule: Q01DX009 (ip), vehicle: Klucel (hydroxypropylcellulose) (HPC)): 88 % of control | T/C (dose: 6.0 mg/kg/injection, schedule: Q01DX009 (ip), vehicle: Klucel (hydroxypropylcellulose) (HPC)): 91 % of control | T/C (dose: 12.0 mg/kg/injection, schedule: Q01DX009 (ip), vehicle: Klucel (hydroxypropylcellulose) (HPC)): 90 % of control

O=[N+]([O-])c1cccc([N+](=O)[O-])c1Cl
T/C [15]: 99 % of control | T/C [16]: 94 % of control | T/C (dose: 40.0 mg/kg/injection, schedule: Q01DX009 (ip), vehicle: saline with Tween-80): 95 % of control | T/C (dose: 80.0 mg/kg/injection, schedule: Q01DX009 (ip), vehicle: saline with Tween-80): 93 % of control | T/C (dose: 160.0 mg/kg/injection, schedule: Q01DX009 (ip), vehicle: saline with Tween-80): 91 % of control

O=C(Nc1ccc(N=C=S)cc1Cl)c1cc(Cl)cc(Cl)c1O
T/C (dose: 6.25 mg/kg/injection, schedule: Q01DX009 (ip), vehicle: Klucel (hydroxypropylcellulose) (HPC)): 104 % of control | T/C [17]: 102 % of control and 111 % of control | T/C [18]: 110 % of control and 111 % of control | T/C [19]: 108 % of control and 118 % of control

CO[C@@]12[C@@H]3N[C@@H]3CN1C1=C(C(=O)C(NCc3ccco3)=C(C)C1=O)[C@@H]2COC(N)=O
T/C (dose: 0.13 mg/kg/injection, schedule: Q01DX001 (ip), vehicle: distilled water + Tween-80): 96 % of control | T/C (dose: 0.25 mg/kg/injection, schedule: Q01DX001 (ip), vehicle: distilled water + Tween-80): 101 % of control | T/C (dose: 0.5 mg/kg/injection, schedule: Q01DX001 (ip), vehicle: distilled water + Tween-80): 111 % of control | T/C (dose: 1.0 mg/kg/injection, schedule: Q01DX001 (ip), vehicle: distilled water + Tween-80): 123 % of control | T/C (dose: 6.0 mg/kg/injection, schedule: Q04DX003 (ip), vehicle: distilled water + Tween-80): 205 % of control | T/C (dose: 12.0 mg/kg/injection, schedule: Q04DX003 (ip), vehicle: distilled water + Tween-80): 305 % of control | T/C (dose: 24.0 mg/kg/injection, schedule: Q04DX003 (ip), vehicle: distilled water + Tween-80): 315 % of control

ClCCN=Cc1ccc(Cl)cc1
T/C [2]: 98 % of control | T/C [3]: 95 % of control | T/C (dose: 400.0 mg/kg/injection, schedule: Q01DX009 (ip), vehicle: saline with Tween-80): 93 % of control

Cc1cc(N(CCOS(C)(=O)=O)CCOS(C)(=O)=O)ccc1C=Nc1ccc(-c2nc(Cc3ccccc3)sc2C)cc1
T/C [18]: 165 % of control | T/C [19]: 174 % of control | T/C [14]: 107 % of control

CCCCCCCCCCCCCCCC(=O)N(CCCN)C(C)CCCN(CC)CC (centres undefined)
T/C [17]: 105 % of control | T/C [18]: 100 % of control | T/C [19]: 107 % of control | T/C [14]: 101 % of control

CN(C)CCCC1(C#N)c2ccccc2CCc2ccccc21
T/C [9]: 110 % of control | T/C [10]: 97 % of control | T/C [6]: 100 % of control | T/C [7]: 110 % of control

CCC/C=C(/CC(=O)O)C(=O)O
T/C (dose: 75.0 mg/kg/injection, schedule: Q04DX003 (ip), vehicle: saline with Tween-80): 100 % of control

Source: PubChem BioAssay AID192 (DTP/NCI, 2004)
